This is an account of results in PMC5218480 (PLoS ONE, 2017).

Each structure is given as a SMILES string.

The assay deals with MV-4-11 cells. The experiment in a line: Gene expression microarray analysis (Affymetrix PrimeView) and GSEA. Type of assay: cell-based, human. Further details: RFU PODN (11730768_x_at) / Fold change /veh PODN (11730768_x_at) / RFU LINC00158 (11744669_a_at) / Fold change /veh LINC00158 (11744669_a_at) / RFU DUSP10 (11751237_a_at) / Fold change /veh DUSP10 (11751237_a_at) / RFU ID3 (11757404_x_at) / Fold change /veh ID3 (11757404_x_at) / RFU PLEKHG5 (11737974_s_at) / Fold change /veh PLEKHG5 (11737974_s_at) / RFU LRRC4B (11730491_at) / Fold change /veh LRRC4B (11730491_at) / RFU GIMAP4 (11747438_a_at) / Fold change /veh GIMAP4 (11747438_a_at) / RFU KRT8 (11758183_x_at) / Fold change /veh KRT8 (11758183_x_at) / RFU CNN1 (11734310_a_at) / Fold change /veh CNN1 (11734310_a_at) / RFU VPS37D (11726825_at) / Fold change /veh VPS37D (11726825_at) / RFU C10orf10 (11716522_x_at) / Fold change /veh C10orf10 (11716522_x_at) / RFU KIR2DL2 /// KIR2DL4 /// KIR2DL5A /// KIR2DL5B /// KIR2DS1 /// KIR2DS2 /// KIR2DS3 /// KIR2DS4 /// KIR3DL3 /// KIR3DL3 /// KIR3DS1 (11738374_at) / Fold change /veh KIR2DL2 /// KIR2DL4 /// KIR2DL5A /// KIR2DL5B /// KIR2DS1 /// KIR2DS2 /// KIR2DS3 /// KIR2DS4 /// KIR3DL3 /// KIR3DL3 /// KIR3DS1 (11738374_at) / RFU C1QL1 (11718748_at) / Fold change /veh C1QL1 (11718748_at) / RFU TMPRSS4 (11747572_a_at) / Fold change /veh TMPRSS4 (11747572_a_at) / RFU HAMP (11756126_x_at) / Fold change /veh HAMP (11756126_x_at) / RFU RNFT2 (11725882_a_at) / Fold change /veh RNFT2 (11725882_a_at) / RFU NR4A2 (11747474_a_at) / Fold change /veh NR4A2 (11747474_a_at) / RFU ABCC12 (11746883_a_at) / Fold change /veh ABCC12 (11746883_a_at) / RFU TMEM136 (11760407_x_at) / Fold change /veh TMEM136 (11760407_x_at) / RFU CLDN22 /// WWC2 (11732394_at) / Fold change /veh CLDN22 /// WWC2 (11732394_at) / RFU HLA-DPB1 (11760878_x_at) / Fold change /veh HLA-DPB1 (11760878_x_at) / RFU SPINT1 (11716480_a_at) / Fold change /veh SPINT1 (11716480_a_at) / RFU GAP43 (11754022_s_at) / Fold change /veh GAP43 (11754022_s_at) / RFU A4GNT (11735810_at) / Fold change /veh A4GNT (11735810_at) / RFU PRB3 (11715151_x_at) / Fold change /veh PRB3 (11715151_x_at) / RFU TUBB4B (11761932_at) / Fold change /veh TUBB4B (11761932_at) / RFU CAPN14 (11732068_a_at) / Fold change /veh CAPN14 (11732068_a_at) / RFU TMCC2 (11721928_a_at) / Fold change /veh TMCC2 (11721928_a_at) / RFU IRGQ (11745062_a_at) / Fold change /veh IRGQ (11745062_a_at) / RFU FAM174B (11720279_a_at) / Fold change /veh FAM174B (11720279_a_at) / RFU TMPRSS4 (11748680_a_at) / Fold change /veh TMPRSS4 (11748680_a_at) / RFU FAM212B (11763350_a_at) / Fold change /veh FAM212B (11763350_a_at) / RFU PLEKHG5 (11743358_a_at) / Fold change /veh PLEKHG5 (11743358_a_at) / RFU ZSCAN30 (11745921_a_at) / Fold change /veh ZSCAN30 (11745921_a_at) / RFU CMKLR1 (11741424_a_at) / Fold change /veh CMKLR1 (11741424_a_at) / RFU LOC101060620 /// MAPK8IP1 (11723275_at) / Fold change /veh LOC101060620 /// MAPK8IP1 (11723275_at) / RFU SPTSSB (11747773_x_at) / Fold change /veh SPTSSB (11747773_x_at) / RFU PRSS12 (11739890_at) / Fold change /veh PRSS12 (11739890_at) / RFU BIN1 (11741810_x_at) / Fold change /veh BIN1 (11741810_x_at) / RFU WNT11 (11732464_a_at) / Fold change /veh WNT11 (11732464_a_at) / RFU C10orf10 (11716521_a_at) / Fold change /veh C10orf10 (11716521_a_at) / RFU C5orf56 (11738089_at) / Fold change /veh C5orf56 (11738089_at) / RFU CYB561 (11721691_x_at) / Fold change /veh CYB561 (11721691_x_at) / RFU ANKRD19P (11752326_a_at) / Fold change /veh ANKRD19P (11752326_a_at) / RFU OR2T12 /// OR2T33 /// OR2T8 (11738714_s_at) / Fold change /veh OR2T12 /// OR2T33 /// OR2T8 (11738714_s_at) / RFU VCAN (11748164_a_at) / Fold change /veh VCAN (11748164_a_at) / RFU JSRP1 (11732532_at) / Fold change /veh JSRP1 (11732532_at) / RFU KRTAP10-11 (11738290_x_at) / Fold change /veh KRTAP10-11 (11738290_x_at) / RFU MYO3A (11730013_a_at) / Fold change /veh MYO3A (11730013_a_at) / RFU EBF3 (11725865_a_at) / Fold change /veh EBF3 (11725865_a_at) / RFU CAMK2N1 (11719241_x_at) / Fold change /veh CAMK2N1 (11719241_x_at) / RFU C5orf56 (11738088_a_at) / Fold change /veh C5orf56 (11738088_a_at) / RFU OLFML3 (11715873_a_at) / Fold change /veh OLFML3 (11715873_a_at) / RFU LOC100653217 /// NTM (11731650_a_at) / Fold change /veh LOC100653217 /// NTM (11731650_a_at) / RFU MAPK11 (11762145_a_at) / Fold change /veh MAPK11 (11762145_a_at) / RFU FIZ1 (11724087_x_at) / Fold change /veh FIZ1 (11724087_x_at) / RFU OASL (11726364_x_at) / Fold change /veh OASL (11726364_x_at) / RFU SOX15 (11748057_x_at) / Fold change /veh SOX15 (11748057_x_at) / RFU CD79A (11719716_a_at) / Fold change /veh CD79A (11719716_a_at) / RFU HIST1H1D (11736915_at) / Fold change /veh HIST1H1D (11736915_at) / RFU CASKIN2 (11723855_a_at) / Fold change /veh CASKIN2 (11723855_a_at) / RFU LOC730098 (11760151_x_at) / Fold change /veh LOC730098 (11760151_x_at) / RFU OR4N2 (11742367_at) / Fold change /veh OR4N2 (11742367_at) / RFU PRRT2 (11749266_a_at) / Fold change /veh PRRT2 (11749266_a_at) / RFU SNX32 (11753110_a_at) / Fold change /veh SNX32 (11753110_a_at) / RFU CDHR5 (11726645_a_at) / Fold change /veh CDHR5 (11726645_a_at) / RFU RCAN1 (11760418_a_at) / Fold change /veh RCAN1 (11760418_a_at) / RFU FAM167A (11723789_a_at) / Fold change /veh FAM167A (11723789_a_at) / RFU FAM26E (11764081_at) / Fold change /veh FAM26E (11764081_at) / RFU ISYNA1 (11749810_s_at) / Fold change /veh ISYNA1 (11749810_s_at) / RFU ACY1 (11761880_at) / Fold change /veh ACY1 (11761880_at) / RFU 11764098_at / Fold change /veh 11764098_at / RFU SAMD14 (11745864_x_at) / Fold change /veh SAMD14 (11745864_x_at) / RFU NPB (11741838_a_at) / Fold change /veh NPB (11741838_a_at) / RFU TMPRSS6 (11731388_a_at) / Fold change /veh TMPRSS6 (11731388_a_at) / RFU KRTAP10-2 (11738614_at) / Fold change /veh KRTAP10-2 (11738614_at) / RFU ARHGAP8 /// PRR5-ARHGAP8 (11727945_x_at) / Fold change /veh ARHGAP8 /// PRR5-ARHGAP8 (11727945_x_at) / RFU KRTAP5-7 /// NADSYN1 (11734609_at) / Fold change /veh KRTAP5-7 /// NADSYN1 (11734609_at) / RFU RASL12 (11751679_a_at) / Fold change /veh RASL12 (11751679_a_at) / RFU CDKN2B (11736163_a_at) / Fold change /veh CDKN2B (11736163_a_at) / RFU PRF1 (11729649_at) / Fold change /veh PRF1 (11729649_at) / RFU, ZNF638 /// ZNF638-IT1 / Fold change vs veh, ZNF638 /// ZNF638-IT1 / RFU, PANK3 / Fold change vs veh, PANK3 / RFU, SH3YL1 / Fold change vs veh, SH3YL1 / RFU, ZEB2 / Fold change vs veh, ZEB2 / RFU, NRIP1 / Fold change vs veh, NRIP1 / RFU, PTTG1IP / Fold change vs veh, PTTG1IP / RFU, CAPN2 / Fold change vs veh, CAPN2 / RFU, MED14 / Fold change vs veh, MED14 / RFU, SNORA58 / Fold change vs veh, SNORA58 / RFU, C1orf63 / Fold change vs veh, C1orf63 / RFU, LRRFIP1 / Fold change vs veh, LRRFIP1 / RFU, NDUFAF7 / Fold change vs veh, NDUFAF7 / RFU, SLC12A2 / Fold change vs veh, SLC12A2 / RFU, IBTK / Fold change vs veh, IBTK / RFU, ESF1 / Fold change vs veh, ESF1 / Fold change vs veh, TMEM50B / RFU, TAOK1 / Fold change vs veh, TAOK1 / RFU, ACBD3 / Fold change vs veh, ACBD3 / RFU, TMA16 / Fold change vs veh, TMA16 / RFU, RWDD3 / Fold change vs veh, RWDD3 / RFU, BCAT1 / Fold change vs veh, BCAT1 / RFU, EDEM3 / Fold change vs veh, EDEM3 / RFU, TMEM33 / Fold change vs veh, TMEM33 / RFU, WDR75 / Fold change vs veh, WDR75 / RFU, AHCTF1 / Fold change vs veh, AHCTF1 / RFU, TFRC / Fold change vs veh, TFRC / RFU, ZDHHC17 / Fold change vs veh, ZDHHC17 / RFU, NOM1 / Fold change vs veh, NOM1 / RFU, ARL8B / Fold change vs veh, ARL8B / RFU, ZBTB11 / Fold change vs veh, ZBTB11 / RFU, TAMM41 / Fold change vs veh, TAMM41 / RFU, KIAA1704 /// LOC100996395 / Fold change vs veh, KIAA1704 /// LOC100996395 / RFU, ING1 / Fold change vs veh, ING1 / RFU, TRMT61B / Fold change vs veh, TRMT61B / RFU, FUBP3 / Fold change vs veh, FUBP3 / RFU, TP53 / Fold change vs veh, TP53 / RFU, TNKS2 / Fold change vs veh, TNKS2 / RFU, ZFP14 / Fold change vs veh, ZFP14 / RFU, ACTR2 / Fold change vs veh, ACTR2 / RFU, PPP3R1 / Fold change vs veh, PPP3R1 / RFU, PIK3R1 / Fold change vs veh, PIK3R1 / RFU, HNRNPA1 / Fold change vs veh, HNRNPA1 / RFU, RNF170 / Fold change vs veh, RNF170 / RFU, ZNF28 / Fold change vs veh, ZNF28 / RFU, RNGTT / Fold change vs veh, RNGTT / RFU, OGT / Fold change vs veh, OGT / RFU, BRD1 / Fold change vs veh, BRD1 / RFU, MARS / Fold change vs veh, MARS / RFU, ZNF655 / Fold change vs veh, ZNF655 / RFU, FAHD1 / Fold change vs veh, FAHD1 / RFU, BDP1 / Fold change vs veh, BDP1 / RFU, LRRCC1 / Fold change vs veh, LRRCC1 / RFU, ARID1A / Fold change vs veh, ARID1A / RFU, ZNF146 / Fold change vs veh, ZNF146 / RFU, ZNF330 / Fold change vs veh, ZNF330 / RFU, GPN3 / Fold change vs veh, GPN3 / RFU, C9orf123 / Fold change vs veh, C9orf123 / RFU, N4BP2L2 / Fold change vs veh, N4BP2L2 / RFU, ARFIP1 / Fold change vs veh, ARFIP1 / RFU, FAM179B / Fold change vs veh, FAM179B / RFU, BCL10 / Fold change vs veh, BCL10 / RFU, UHRF1BP1L / Fold change vs veh, UHRF1BP1L / RFU, BET1 / Fold change vs veh, BET1 / RFU, CNOT2 / Fold change vs veh, CNOT2 / RFU, ZNF268 / Fold change vs veh, ZNF268 / Fold change vs veh, ZNF507 / RFU, DGCR2 / Fold change vs veh, DGCR2 / RFU, WDSUB1 / Fold change vs veh, WDSUB1 / Fold change vs veh, HSP90B1 /// MIR3652 / RFU, ADSS / Fold change vs veh, ADSS / RFU, GK / Fold change vs veh, GK / RFU, ZNF148 / Fold change vs veh, ZNF148 / RFU, TAF9 / Fold change vs veh, TAF9 / RFU, SLC1A5 / Fold change vs veh, SLC1A5 / RFU, SLMO2 / Fold change vs veh, SLMO2 / RFU, ABCC4 / Fold change vs veh, ABCC4 / RFU, LOC101060439 /// RAP1B / Fold change vs veh, LOC101060439 /// RAP1B / RFU, RFX7 / Fold change vs veh, RFX7 / RFU, GTPBP10 / Fold change vs veh, GTPBP10 / RFU, CNEP1R1 / Fold change vs veh, CNEP1R1 / RFU, BIVM-ERCC5 /// ERCC5 / Fold change vs veh, BIVM-ERCC5 /// ERCC5 / RFU, ILF3 / Fold change vs veh, ILF3 / RFU 11762660_at / Fold change /veh 11762660_at / RFU VCAN (11757783_s_at) / Fold change /veh VCAN (11757783_s_at) / RFU DDX43 (11728927_at) / Fold change /veh DDX43 (11728927_at) / RFU KRT8 (11758188_x_at) / Fold change /veh KRT8 (11758188_x_at) / RFU NKD1 (11759106_at) / Fold change /veh NKD1 (11759106_at) / RFU SRD5A1 (11742802_a_at) / Fold change /veh SRD5A1 (11742802_a_at) / RFU TPSAB1 /// TPSB2 (11721975_s_at) / Fold change /veh TPSAB1 /// TPSB2 (11721975_s_at) / RFU GSTM3 (11746129_a_at) / Fold change /veh GSTM3 (11746129_a_at) / RFU IL23R (11737362_x_at) / Fold change /veh IL23R (11737362_x_at) / RFU TMEM51 (11727254_a_at) / Fold change /veh TMEM51 (11727254_a_at) / RFU PIWIL2 (11732686_x_at) / Fold change /veh PIWIL2 (11732686_x_at) / RFU ORM1 (11744905_x_at) / Fold change /veh ORM1 (11744905_x_at) / RFU CCDC152 (11743942_at) / Fold change /veh CCDC152 (11743942_at) / RFU ECM1 (11717891_a_at) / Fold change /veh ECM1 (11717891_a_at) / RFU IL23R (11748794_a_at) / Fold change /veh IL23R (11748794_a_at) / RFU TNFAIP8L3 (11732012_x_at) / Fold change /veh TNFAIP8L3 (11732012_x_at) / RFU MBOAT4 (11741988_at) / Fold change /veh MBOAT4 (11741988_at) / RFU 11764193_at / Fold change /veh 11764193_at / RFU TMEM53 (11763286_at) / Fold change /veh TMEM53 (11763286_at) / RFU MAGEB2 (11727129_at) / Fold change /veh MAGEB2 (11727129_at) / RFU TMEM200A (11744735_a_at) / Fold change /veh TMEM200A (11744735_a_at) / RFU CCDC152 (11751479_a_at) / Fold change /veh CCDC152 (11751479_a_at) / RFU FAM211A (11726209_a_at) / Fold change /veh FAM211A (11726209_a_at) / RFU RGS16 (11746705_a_at) / Fold change /veh RGS16 (11746705_a_at) / RFU VCAN (11755009_s_at) / Fold change /veh VCAN (11755009_s_at) / RFU RHOB (11743442_s_at) / Fold change /veh RHOB (11743442_s_at) / RFU RGS16 (11720943_a_at) / Fold change /veh RGS16 (11720943_a_at) / RFU RGS16 (11720944_at) / Fold change /veh RGS16 (11720944_at) / RFU, VPS4B / Fold change vs veh, VPS4B / RFU, CREB1 / Fold change vs veh, CREB1 / RFU, DNAJC13 / Fold change vs veh, DNAJC13 / RFU, GNAQ / Fold change vs veh, GNAQ / RFU, CDK5R1 / Fold change vs veh, CDK5R1 / RFU, ZRANB3 / Fold change vs veh, ZRANB3 / RFU, CUL4A / Fold change vs veh, CUL4A / RFU, CCNY / Fold change vs veh, CCNY / RFU, UFL1 / Fold change vs veh, UFL1 / RFU, COG3 / Fold change vs veh, COG3 / RFU, DIAPH2 / Fold change vs veh, DIAPH2 / RFU, SKA2 / Fold change vs veh, SKA2 / RFU, AFF3 / Fold change vs veh, AFF3 / RFU, LMF1 / Fold change vs veh, LMF1 / RFU, IPO11 / Fold change vs veh, IPO11 / RFU, DFFB / Fold change vs veh, DFFB / RFU, FOXP1 / Fold change vs veh, FOXP1 / RFU, CARD8 / Fold change vs veh, CARD8 / RFU, STRN3 / Fold change vs veh, STRN3 / RFU, ADK / Fold change vs veh, ADK / RFU, RASSF2 / Fold change vs veh, RASSF2 / RFU, WIPF1 / Fold change vs veh, WIPF1 / RFU, LARP1B / Fold change vs veh, LARP1B / RFU, RASA1 / Fold change vs veh, RASA1 / RFU, RB1 / Fold change vs veh, RB1 / RFU, PPFIA1 / Fold change vs veh, PPFIA1 / RFU, MAT2A / Fold change vs veh, MAT2A / RFU, CCT5 / Fold change vs veh, CCT5 / RFU, WDR92 / Fold change vs veh, WDR92 / RFU, CUX1 / Fold change vs veh, CUX1 / RFU, TTC7A / Fold change vs veh, TTC7A / RFU, TMEM135 / Fold change vs veh, TMEM135 / RFU, DEPTOR / Fold change vs veh, DEPTOR / RFU, CPM / Fold change vs veh, CPM / RFU, DNAJB6 / Fold change vs veh, DNAJB6 / RFU, CACNA2D3 / Fold change vs veh, CACNA2D3 / RFU, DTX4 / Fold change vs veh, DTX4 / RFU, TFCP2 / Fold change vs veh, TFCP2 / RFU, GMCL1 /// GMCL1P1 / Fold change vs veh, GMCL1 /// GMCL1P1 / RFU, AEBP2 / Fold change vs veh, AEBP2 / RFU, SNHG1 /// SNORD22 /// SNORD25 /// SNORD26 /// SNORD27 /// SNORD28 /// SNORD29 /// SNORD31 / Fold change vs veh, SNHG1 /// SNORD22 /// SNORD25 /// SNORD26 /// SNORD27 /// SNORD28 /// SNORD29 /// SNORD31 / Fold change (Aza/veh), C12orf56 (ProbeSet 11735607_a_at) / Fold change (ACY-1035/veh), C12orf56 (ProbeSet 11735607_a_at) / Fold change (Aza/veh), FGFR1OP (ProbeSet 11751329_s_at) / Fold change (ACY-1035/veh), FGFR1OP (ProbeSet 11751329_s_at) / Fold change (Aza/veh), VPS36 (ProbeSet 11739960_a_at) / Fold change (ACY-1035/veh), VPS36 (ProbeSet 11739960_a_at) / RFU SYPL1 (11715823_x_at) / Fold change /veh SYPL1 (11715823_x_at) / RFU IGFBP7 (11715501_s_at) / Fold change /veh IGFBP7 (11715501_s_at) / RFU REEP3 (11722064_at) / Fold change /veh REEP3 (11722064_at) / RFU IGLL1 (11728026_x_at) / Fold change /veh IGLL1 (11728026_x_at): dose or concentration left out as unconfirmed. Particulars: MV-4-11 cells, 48 hours.

Consider `Nc1ccc(-c2cccs2)cc1NC(=O)c1ccc2c(c1)cc(C1CC1)n2CCN1CCOCC1` [ACY-1035], for which the “RFU IL23R (11748794_a_at)” value came to 5.77 RFU.
